Laboratory results: PubChem BioAssay (NCI)
“And” between values parts separate entries of the source, which are not always exact repeats. Equal entries are not always repeated.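 Compound exposure: 48 hours, 5 concentrations, 96-well plates. GI50: concentration for 50% inhibition of growth. TGI marks complete inhibition of growth.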 Where a SMILES comes first, the peptide text is derived from it. [ ]: non-standard residue; d: D form. The star is where a group is joined. ξ: configuration not given here. ξF = NC(Cc1ccccc1)C(=O)O; Cbz = O=C(OCc1ccccc1)*

Tests used:
Assay in all cases: NCI anticancer screen, dose series, 48 h
UO-31 renal = test system: UO-31 renal
M14 melanoma = test system: M14 melanoma
SK-MEL-28 melanoma = test system: SK-MEL-28 melanoma
CAKI-1 renal = test system: CAKI-1 renal
T-47D breast = test system: T-47D breast
K-562 leukemia = test system: K-562 leukemia
MALME-3M melanoma = test system: MALME-3M melanoma
NCI-H23 lung = test system: NCI-H23 lung
HCC-2998 colon = test system: HCC-2998 colon
MDA-N = test system: MDA-N
ACHN renal = test system: ACHN renal
EKVX NSCLC = test system: EKVX NSCLC

Row | SMILES | TGI (UO-31 renal) | TGI (M14 melanoma) | TGI (SK-MEL-28 melanoma) | TGI (CAKI-1 renal) | TGI (T-47D breast) | TGI (K-562 leukemia) | TGI (MALME-3M melanoma) | TGI (NCI-H23 lung) | TGI (HCC-2998 colon) | TGI (MDA-N) | TGI (ACHN renal) | TGI (EKVX NSCLC) | GI50 (CAKI-1 renal) | GI50 (T-47D breast) | GI50 (K-562 leukemia) | GI50 (MALME-3M melanoma)
1 | COc1cc(C2c3cc4c(cc3OC(NN)C2C)OCO4)cc(OC)c1O (centres undefined) | 61.8 µM | > 100 µM | 33.9 µM | > 100 µM | 31 µM | 12.6 µM | 40.1 µM | > 100 µM | 29.6 µM | – | – | – | – | – | – | –
2 | O=C(NCCC1CNc2ccccc21)OCc1ccccc1 (centres undefined) | > 100 µM | > 100 µM | > 100 µM | > 100 µM | – | > 100 µM | > 100 µM | > 100 µM | > 100 µM | > 100 µM | > 100 µM | > 100 µM | – | – | – | –
3 | CC1(C)O[C@@H]2[C@@H](COC(C)(C)O[C@H]2C2SCCCS2)O1 | > 100 µM | > 100 µM | > 100 µM | > 100 µM | > 100 µM | > 100 µM | > 100 µM | > 100 µM | > 100 µM | > 100 µM | > 100 µM | – | – | – | – | –
4 | CC(=O)NC1C(OCC(=O)NCCNc2ccc([N+](=O)[O-])c3[nH]c4ccccc4c(=O)c23)C(O)C(CO)OC1(C)OCc1ccccc1 (centres undefined) | > 100 µM | > 100 µM | – | > 100 µM | > 100 µM | > 100 µM | – | > 100 µM | > 100 µM | > 100 µM | > 100 µM | > 100 µM | – | – | – | –
5 | COC(=O)C1CCC(=O)N1CN(C(C)=O)c1cccc(O)c1 (centres undefined) | > 100 µM | > 100 µM | > 100 µM | > 100 µM | > 100 µM | > 100 µM | > 100 µM | > 100 µM | – | > 100 µM | > 100 µM | > 100 µM | – | – | – | –
6 | Cn1c2ccccc2c(=O)c2c(O)cc3c(c21)C1OCC(C)(O)C1O3 (centres undefined) | 36.6 µM | > 100 µM | > 100 µM | > 100 µM | > 100 µM | > 100 µM | – | – | > 100 µM | > 100 µM | > 100 µM | > 100 µM | – | – | – | –
7 | NC1=NC2(COC(c3ccccc3)(c3ccccc3)c3ccccc3)OC(COC(c3ccccc3)(c3ccccc3)c3ccccc3)C(O)C2O1 (centres undefined) | > 100 µM | > 100 µM | > 100 µM | > 100 µM | > 100 µM | > 100 µM | > 100 µM | > 100 µM | – | > 100 µM | > 100 µM | > 100 µM | – | – | – | –
8 | COc1cc([C@@H]2c3cc4c(cc3[C@@H](Nc3ccc(NC(=O)c5cc([N+](=O)[O-])cn5C)cc3)[C@H]3COC(=O)[C@H]23)OCO4)cc(OC)c1O | 0.841 µM and 0.825 µM | 2.47 µM and 4.94 µM | > 100 µM | 0.204 µM and 0.338 µM | 28.8 µM and > 24.4 µM | > 100 µM | – | 4.04 µM and 0.546 µM | 0.8 µM and 0.872 µM | – | 0.484 µM and 0.164 µM | > 100 µM | 0.0214 µM and 0.0725 µM | 0.0115 µM | 0.293 µM | 0.279 µM and 0.115 µM
9 | COC(=O)[C@@]12OC[C@]34C([C@@H](O)C1O)[C@@]1(C)CC(=O)C(OC(=O)CC(C)C(F)(F)F)=C(C)C1C[C@H]3OC(=O)[C@H](O)[C@H]42 (some centres undefined) | > 62.5 µM | 9.76 µM | 18.2 µM | > 62.5 µM | – | > 62.5 µM | 3.69 µM | 8.69 µM | 11 µM | – | > 62.5 µM | > 62.5 µM | – | – | – | –
10 | NNc1nnc(CCCCCCCCc2nnc(NN)n2N)n1N | > 100 µM | > 100 µM | > 100 µM | > 100 µM | – | > 100 µM | – | > 100 µM | > 100 µM | > 100 µM | > 100 µM | > 100 µM | – | – | – | –
11 | O=C1c2ccccc2N2OC3(N4CCOCC4)CCCC3C12c1ccccc1 (centres undefined) | > 100 µM | > 100 µM | > 100 µM | – | – | > 100 µM | > 100 µM | > 100 µM | > 100 µM | – | > 100 µM | > 100 µM | – | – | – | –
12 | C1CSCCSCCCS[C@@H]2CCCCC2SC1 (some centres undefined) | > 100 µM | > 100 µM | > 100 µM | > 100 µM | – | 96.1 µM | > 100 µM | > 100 µM | > 100 µM | – | > 100 µM | > 100 µM | – | – | – | –
13 | O=c1[nH]c(N/N=C\C(O)C(O)C(O)C(O)CO)nc2ccccc12 (centres undefined) | > 100 µM | > 100 µM | > 100 µM | > 100 µM | > 100 µM | > 100 µM | – | > 100 µM | – | > 100 µM | > 100 µM | > 100 µM | – | – | – | –
14 | CC(C)(CN1CCCCC1)C(=O)/C=C/c1ccc(Br)cc1 | > 24.7 µM | 4.75 µM | 11.7 µM | 3.71 µM | – | 8.95 µM | 17.4 µM | 9.11 µM | 31.7 µM | – | 14.5 µM | 9.13 µM | – | – | – | –
15 | CCOC(=O)C1(C/C=C\CBr)CCCC1=O (centres undefined) | 59.5 µM | 75.1 µM | > 100 µM | > 100 µM | 94.3 µM | – | > 100 µM | 56.7 µM | – | – | 56.5 µM | > 100 µM | – | – | – | –
16 | Cc1nc2c(sc3nc4c(cc32)CCC4)c(=O)o1 | > 91.1 µM | > 100 µM | > 100 µM | > 100 µM | > 100 µM | > 100 µM | – | > 100 µM | > 100 µM | > 100 µM | > 100 µM | > 100 µM | – | – | – | –
17 | NS(=O)(=O)c1nnc(NC(=S)NC(=O)Nc2ccc(Cl)c(Cl)c2)s1 | 48 µM | 36.1 µM | > 100 µM | 63.6 µM | – | > 100 µM | 59 µM | 40.4 µM | – | – | – | 80.1 µM | – | – | – | –
18 | CCCCCCCCOCC(COC(=O)CCCCCCC)OC(=O)CCCCCCC (centres undefined) | > 100 µM | > 100 µM | > 100 µM | > 100 µM | – | > 100 µM | > 100 µM | > 100 µM | > 100 µM | – | > 100 µM | – | – | – | – | –
19 | CN1CCOC(C(NC(=O)c2ccccc2)c2ccccc2)C1=O (centres undefined) | > 100 µM | > 100 µM | > 100 µM | > 100 µM | – | > 100 µM | > 100 µM | > 100 µM | > 100 µM | – | > 100 µM | > 100 µM | – | – | – | –
20 | CCOC(=O)CNC(=O)C(Cc1ccccc1)NC(=O)OCc1ccccc1 (centres undefined) (Cbz-[ξF]-Gly-OEt) | > 100 µM | > 100 µM | – | – | > 100 µM | > 100 µM | > 100 µM | > 100 µM | > 100 µM | > 100 µM | > 100 µM | > 100 µM | – | – | – | –
21 | COc1cc2nc(Cl)nc(NS(=O)(=O)c3cc4ccccc4s3)c2cc1OC | 33.3 µM | 85 µM | 0.11 µM | > 100 µM | 56.7 µM | 52.6 µM | > 100 µM | 62.5 µM | 39.3 µM | – | 99.6 µM | 66.5 µM | – | – | – | –
